Data reported in ChEMBL document CHEMBL1201862, “PubChem BioAssay data set” (2004).
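Five compound concentrations were applied to cells in 96-well plates for 48 hours; endpoints were derived by simple linear interpolation of the resulting dose-response curve. Here, GI50 denotes the concentration required for 50% inhibition of growth.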 Activity calls are given as the source filed them. No stated cut-off is given here; in the data, active = GI50 up to about 1.1 µM and inactive = higher.

Assays:
Assay in all cases: NCI-60 cell line screen, 48 h
HCT-116 = tested on: HCT-116
OVCAR-3 = tested on: OVCAR-3
SNB-19 = tested on: SNB-19
EKVX = tested on: EKVX
SN12C = tested on: SN12C
OVCAR-5 = tested on: OVCAR-5
HT-29 = tested on: HT-29
SW-620 = tested on: SW-620
PC-3 = tested on: PC-3
T47D = tested on: T47D
CAKI-1 = tested on: CAKI-1
SF-295 = tested on: SF-295
NCI-H460 = tested on: NCI-H460
OVCAR-4 = tested on: OVCAR-4
SF-268 = tested on: SF-268
K562 = tested on: K562
SF-539 = tested on: SF-539
RPMI-8226 = tested on: RPMI-8226

Measured: GI50

COC(=O)CCCC(=O)O
inactive: HCT-116 > 100 µM | OVCAR-3 > 100 µM | SNB-19 > 100 µM | EKVX > 100 µM | SN12C > 100 µM | OVCAR-5 > 100 µM | HT-29 > 100 µM | SW-620 > 100 µM | PC-3 > 100 µM | T47D > 100 µM | CAKI-1 > 100 µM | SF-295 > 100 µM | NCI-H460 > 100 µM | OVCAR-4 > 100 µM | SF-268 > 100 µM

CC1=C[C@H](O)[C@@]2(C)[C@@H]([C@@H]1C)[C@H]1CC[C@@H]3[C@@]4(C)CC[C@H](O)C(C)(C)[C@@H]4CC[C@@]3(C)[C@]1(C)C[C@@H]2O
inactive: HCT-116 12.4 µM | OVCAR-3 16.8 µM | SNB-19 15.8 µM | EKVX 12.4 µM | SN12C 15.2 µM | OVCAR-5 15.6 µM | HT-29 13.8 µM | K562 19.6 µM | SW-620 22.1 µM | PC-3 20.6 µM | T47D 14.3 µM | CAKI-1 20.8 µM | SF-295 16.1 µM | NCI-H460 18.9 µM | OVCAR-4 17.9 µM | SF-268 10.5 µM

CN1CCC2(CC1)SSC1(CCN(C)CC1)S2
inactive: HCT-116 > 100 µM | SNB-19 69.3 µM | SN12C > 100 µM | OVCAR-5 > 100 µM | HT-29 > 100 µM | SF-539 > 100 µM | K562 > 100 µM | SW-620 > 100 µM | PC-3 > 100 µM | SF-295 > 100 µM | RPMI-8226 > 100 µM | NCI-H460 > 100 µM | OVCAR-4 > 100 µM

COI1NC(=O)c2ccccc21
inactive: HCT-116 > 100 µM | OVCAR-3 > 100 µM | SNB-19 > 100 µM | EKVX > 100 µM | SN12C > 100 µM | OVCAR-5 > 100 µM | HT-29 > 100 µM | K562 > 100 µM | SW-620 > 100 µM | PC-3 > 100 µM | SF-295 > 100 µM | RPMI-8226 > 100 µM | OVCAR-4 > 100 µM | SF-268 > 100 µM

O=C(Nc1ccccc1)c1cc2ccccc2c(/N=N\c2cccc([N+](=O)[O-])c2)c1O
inactive: HCT-116 > 100 µM | OVCAR-3 > 100 µM | SNB-19 31 µM | EKVX 39 µM | SN12C > 100 µM | OVCAR-5 > 100 µM | HT-29 > 100 µM | SF-539 54.8 µM | K562 89.3 µM | SW-620 > 100 µM | PC-3 > 100 µM | T47D > 100 µM | CAKI-1 > 100 µM | SF-295 > 100 µM | NCI-H460 > 100 µM | OVCAR-4 97.5 µM | SF-268 48.6 µM

COc1ccc(-c2c(C(C)=O)c(-c3ccccc3)n(C3OC(CO)C(O)C(O)C3O)c(=S)c2C#N)cc1 (stereo not given)
inactive: HCT-116 > 100 µM | OVCAR-3 > 100 µM | SNB-19 > 100 µM | EKVX > 100 µM | SN12C > 100 µM | OVCAR-5 > 100 µM | HT-29 > 100 µM | SF-539 > 100 µM | K562 > 100 µM | SW-620 > 100 µM | T47D > 100 µM | CAKI-1 > 100 µM | SF-295 > 100 µM | NCI-H460 > 100 µM | OVCAR-4 > 100 µM | SF-268 > 100 µM

Nc1ccc2nc(-c3cccc(C(F)(F)F)c3)cc(O)c2c1
inactive: SNB-19 46.1 µM | EKVX 44.7 µM | SN12C 61.8 µM | OVCAR-5 43.2 µM | HT-29 34.1 µM | SF-539 19.6 µM | SW-620 62.1 µM | PC-3 23.8 µM | CAKI-1 29.6 µM | RPMI-8226 38.5 µM | NCI-H460 29.8 µM

CCOC(=O)NC(C(=O)OCC)C(F)(F)F (stereo not given)
inactive: HCT-116 > 100 µM | OVCAR-3 > 100 µM | SNB-19 > 100 µM | EKVX > 100 µM | SN12C > 100 µM | OVCAR-5 > 100 µM | HT-29 > 100 µM | SF-539 37.4 µM | K562 > 100 µM | SW-620 > 100 µM | PC-3 > 100 µM | CAKI-1 > 100 µM | SF-295 > 100 µM | RPMI-8226 57 µM | NCI-H460 > 100 µM | SF-268 > 100 µM

O=C(NCCCN(CCCCN(CCCNC(=O)C(F)(F)F)Cc1ccccc1)Cc1ccccc1)C(F)(F)F
inactive: HCT-116 11.5 µM | SNB-19 13.7 µM | EKVX 12.6 µM | SN12C 15.4 µM | OVCAR-5 19.9 µM | HT-29 6.49 µM | SF-539 13.5 µM | K562 13.7 µM | SW-620 16.5 µM | T47D 17.7 µM | CAKI-1 13.6 µM | SF-295 16.5 µM | RPMI-8226 16 µM | NCI-H460 10.4 µM | OVCAR-4 16.8 µM | SF-268 12.5 µM

COC(=O)C1=CC(=O)OC1(OO)c1ccc(Br)cc1 (stereo not given)
inactive: HCT-116 47.1 µM | OVCAR-3 > 100 µM | SNB-19 > 100 µM | EKVX > 100 µM | SN12C > 100 µM | OVCAR-5 > 100 µM | HT-29 57.4 µM | SF-539 > 100 µM | K562 33.7 µM | SW-620 62.8 µM | PC-3 > 100 µM | T47D > 100 µM | CAKI-1 > 100 µM | SF-295 > 100 µM | NCI-H460 > 100 µM | OVCAR-4 > 100 µM

O=C1C=Cc2c1csc2Br
inactive: HCT-116 43.3 µM | OVCAR-3 71 µM | SNB-19 70.3 µM | EKVX 87.5 µM | SN12C > 100 µM | OVCAR-5 > 100 µM | HT-29 96.8 µM | K562 26.5 µM | SW-620 22.3 µM | PC-3 65.3 µM | T47D 54.5 µM | CAKI-1 > 100 µM | SF-295 > 100 µM | NCI-H460 > 100 µM | OVCAR-4 70.8 µM | SF-268 86.9 µM

c1ccc2c3nnc(c2c1)SCCSCCCSCCS3
inactive: HCT-116 > 100 µM | OVCAR-3 38 µM | SNB-19 26.5 µM | EKVX > 100 µM | SN12C 53.8 µM | OVCAR-5 > 100 µM | HT-29 > 100 µM | SF-539 12.6 µM | K562 > 100 µM | SW-620 > 100 µM | PC-3 43.1 µM | T47D > 100 µM | CAKI-1 39.7 µM | SF-295 31.4 µM | NCI-H460 > 100 µM | OVCAR-4 2.9 µM | SF-268 43.5 µM

CO[P@]1(=O)O[C@@H](c2ccccc2)[C@H](O)[C@@]1(O)c1ccccc1
inactive: HCT-116 > 100 µM | OVCAR-3 > 100 µM | SNB-19 > 100 µM | EKVX > 100 µM | SN12C > 100 µM | OVCAR-5 > 100 µM | HT-29 > 100 µM | SF-539 > 100 µM | K562 > 100 µM | SW-620 > 100 µM | PC-3 > 100 µM | T47D > 100 µM | CAKI-1 > 100 µM | SF-295 > 100 µM | NCI-H460 > 100 µM | OVCAR-4 > 100 µM

Nc1nc(SCCc2ccccc2)c2nc[nH]c2n1
inactive: HCT-116 68.5 µM | OVCAR-3 45.1 µM | SNB-19 > 100 µM | EKVX 25.2 µM | SN12C 39.4 µM | OVCAR-5 72.3 µM | HT-29 41.1 µM | K562 48.1 µM | SW-620 76.9 µM | PC-3 38.9 µM | T47D 40.9 µM | CAKI-1 61.9 µM | SF-295 71.9 µM | NCI-H460 33.9 µM | OVCAR-4 > 100 µM | SF-268 46.6 µM

CCOc1c2c(cc3c1C(=O)c1c(OC)cccc1C3=O)C=C(OC)CC2
inactive: HCT-116 17.4 µM | OVCAR-3 > 25 µM | SNB-19 > 25 µM | EKVX > 25 µM | SN12C > 25 µM | OVCAR-5 > 25 µM | HT-29 10.3 µM | SF-539 > 25 µM | K562 6.87 µM | SW-620 9.98 µM | PC-3 17.8 µM | CAKI-1 > 25 µM | SF-295 10.7 µM | RPMI-8226 7.24 µM | NCI-H460 13.3 µM | OVCAR-4 > 25 µM | SF-268 > 25 µM

Cc1ccc(S(=O)(=O)N2CCNCCN(S(=O)(=O)c3ccc(C)cc3)CCNCC2)cc1
inactive: HCT-116 15 µM | OVCAR-3 14.2 µM | SNB-19 31 µM | EKVX 24 µM | SN12C 29.6 µM | OVCAR-5 43.4 µM | HT-29 14.1 µM | SF-539 19.1 µM | K562 14.2 µM | SW-620 35.5 µM | T47D 12.3 µM | CAKI-1 27.6 µM | SF-295 15.8 µM | NCI-H460 14.7 µM | OVCAR-4 32.2 µM | SF-268 21.8 µM

CCOC(=O)c1c(SC(=O)c2ccc(OC)cc2)n(-c2ccccc2)c(=S)n(-c2ccccc2)c1=O
inactive: HCT-116 23.3 µM | OVCAR-3 50 µM | SNB-19 > 100 µM | EKVX > 100 µM | SN12C 76.9 µM | OVCAR-5 > 100 µM | HT-29 46.1 µM | SF-539 21.2 µM | K562 42.5 µM | SW-620 26.7 µM | PC-3 59.3 µM | T47D > 100 µM | CAKI-1 > 100 µM | SF-295 > 100 µM | NCI-H460 84.7 µM | OVCAR-4 > 100 µM | SF-268 18.6 µM
